Test results taken from the NIST ThermoML archive (doi:10.1016/j.fluid.2015.07.030).
Numbers after ± are expanded uncertainties.

Test: refractive index (other wavelength) (dimensionless); xn = mol fraction of the nth substance listed
Details: 313.15 K, 95.99 kPa, Liquid, Standard Abbe refractometry

OCCOCCOCCO [triethylene glycol] + O
refractive index
Details | Wavelength=546.1 nm | Wavelength=587.6 nm | Wavelength=589.3 nm | Wavelength=632.8 nm | Wavelength=644 nm | Wavelength=706.5 nm
x2 = 0 | – | 1.44927 ± 0.00033 | 1.4492 ± 0.00033 | 1.44766 ± 0.00033 | 1.44731 ± 0.00033 | 1.44561 ± 0.00033
x2 = 0.1056 | – | 1.44812 ± 0.00033 | 1.44806 ± 0.00033 | 1.44652 ± 0.00033 | 1.44616 ± 0.00033 | 1.44445 ± 0.00033
x2 = 0.2069 | – | 1.44653 ± 0.00032 | 1.44647 ± 0.00033 | 1.44494 ± 0.00032 | 1.44459 ± 0.00032 | 1.44288 ± 0.00033
x2 = 0.3104 | – | 1.44397 ± 0.00032 | 1.44244 ± 0.00032 | 1.44209 ± 0.00032 | 1.44136 ± 0.00032 | 1.4404 ± 0.0003
x2 = 0.4844 | – | 1.44124 ± 0.00033 | 1.44046 ± 0.00032 | 1.43954 ± 0.00033 | 1.43899 ± 0.00032 | 1.43766 ± 0.00033
x2 = 0.5016 | – | 1.43853 ± 0.00033 | 1.43847 ± 0.00033 | 1.43695 ± 0.00033 | 1.43661 ± 0.00033 | 1.43492 ± 0.00033
x2 = 0.5952 | – | 1.43204 ± 0.00032 | 1.43197 ± 0.00032 | 1.43049 ± 0.00032 | 1.43015 ± 0.00032 | 1.42848 ± 0.00032
x2 = 0.6016 | – | 1.43132 ± 0.00032 | 1.43126 ± 0.00032 | 1.43021 ± 0.00032 | 1.42952 ± 0.00032 | 1.42809 ± 0.00032
x2 = 0.6788 | – | 1.42601 ± 0.00032 | 1.42559 ± 0.00032 | 1.42446 ± 0.00032 | 1.42411 ± 0.00032 | 1.42243 ± 0.00032
x2 = 0.7835 | 1.41893 ± 0.00032 | 1.41728 ± 0.00032 | 1.41722 ± 0.00032 | 1.41578 ± 0.00032 | 1.41543 ± 0.00032 | 1.41372 ± 0.00032
x2 = 0.8184 | 1.41287 ± 0.00032 | 1.41125 ± 0.00032 | 1.41119 ± 0.00032 | 1.40976 ± 0.00032 | 1.40942 ± 0.00032 | 1.40776 ± 0.00032
x2 = 0.8473 | 1.40736 ± 0.00032 | 1.40575 ± 0.00032 | 1.40569 ± 0.00032 | 1.40427 ± 0.00032 | 1.40394 ± 0.00032 | 1.40231 ± 0.00032
x2 = 0.8719 | 1.40061 ± 0.00032 | 1.39902 ± 0.00032 | 1.39896 ± 0.00032 | 1.39756 ± 0.00032 | 1.39723 ± 0.00032 | 1.39559 ± 0.00032
x2 = 0.8926 | 1.39332 ± 0.00032 | 1.39177 ± 0.00032 | 1.39171 ± 0.00032 | 1.39035 ± 0.00032 | 1.39002 ± 0.00032 | 1.3884 ± 0.0003
x2 = 0.9106 | 1.38799 ± 0.00032 | 1.38648 ± 0.00032 | 1.38642 ± 0.00032 | 1.38508 ± 0.00032 | 1.38475 ± 0.00032 | 1.38313 ± 0.00032
x2 = 0.9254 | 1.37865 ± 0.00032 | 1.37712 ± 0.00032 | 1.37706 ± 0.00032 | 1.37569 ± 0.00032 | 1.37537 ± 0.00032 | 1.37376 ± 0.00032
x2 = 0.9303 | 1.3792 ± 0.00032 | 1.37769 ± 0.00032 | 1.37763 ± 0.00032 | 1.37629 ± 0.00032 | 1.37596 ± 0.00032 | 1.37435 ± 0.00032
x2 = 0.9391 | 1.37598 ± 0.00031 | 1.37445 ± 0.00031 | 1.3744 ± 0.00031 | 1.37305 ± 0.00031 | 1.37272 ± 0.00031 | 1.37112 ± 0.00031
x2 = 0.951 | 1.36949 ± 0.00032 | 1.36803 ± 0.00032 | 1.36794 ± 0.00032 | 1.36662 ± 0.00032 | 1.3663 ± 0.00032 | 1.36471 ± 0.00032
x2 = 0.9599 | 1.36219 ± 0.00031 | 1.36072 ± 0.00031 | 1.36066 ± 0.00031 | 1.35936 ± 0.00031 | 1.35904 ± 0.00031 | 1.35747 ± 0.00031
x2 = 0.9708 | 1.35533 ± 0.00031 | 1.35388 ± 0.00031 | 1.35383 ± 0.00031 | 1.35253 ± 0.00031 | 1.35221 ± 0.00031 | 1.35066 ± 0.00031
x2 = 0.979 | 1.35071 ± 0.00031 | 1.34929 ± 0.00031 | 1.34923 ± 0.00031 | 1.34796 ± 0.00031 | 1.34764 ± 0.00031 | 1.3461 ± 0.00031
x2 = 0.9867 | 1.34386 ± 0.00031 | 1.34243 ± 0.00031 | 1.34238 ± 0.00031 | 1.34111 ± 0.00031 | 1.34081 ± 0.00031 | 1.33932 ± 0.00031
x2 = 0.9936 | 1.33811 ± 0.00031 | 1.3367 ± 0.00031 | 1.33665 ± 0.00031 | 1.3354 ± 0.00031 | 1.3351 ± 0.00031 | 1.33361 ± 0.00031
